According to PMC8218931, “Enhancement of oral bioavailability of quercetin by metabolic inhibitory nanosuspensions compared to conventional nanosuspensions” (Drug Delivery, 2021):
Converted amounts (≈) assume the structure as drawn.

Tests used:
[1] = design: method as in Bi et al., 2019; details: piperine as a bioenhancer; ref Bi et al., 2019; cited from earlier work
[2] = design: method as in Justino et al., 2004; details: rats, single oral 10 mg quercetin/200 g body weight, an hour later; ref Justino et al., 2004; cited from earlier work
[3] = Solubility of Que in release medium; type: physicochemical; details: PBS containing 0.1% (w/v) Tween 80 (pH 7.4)
[4] = design: method as in Xiao et al., 2005; details: rats, radiolabeled quercetin by gavage, free or metabolized; ref Xiao et al., 2005; cited from earlier work
[5] = design: method as in Xiao et al., 2005; details: ref Xiao et al., 2005, cited from earlier work

Structure (SMILES) | Bioavailability of silybin [1] | Quercetin metabolized [2] [%] | solubility [3] [µg/mL] | Total quercetin absorbed [4] [%] | Solubility in artificial gastric juice ([5]; artificial gastric juice) [µg/mL] | Solubility in artificial intestinal juice ([5]; artificial intestinal juice) [µg/mL] | Solubility in water ([5]; water)
O=C(/C=C/C=C/c1ccc2c(c1)OCO2)N1CCCCC1 [piperine, Piperine] | 146–181% |  |  |  |  |  | 
O=c1c(O)c(-c2ccc(O)c(O)c2)oc2cc(O)cc(O)c12 [Quercetin, 3,3′,4′,5,7-pentahydroxyflavone] |  | 93 | 30 (≈ 99.3 µM) | 20 | 5.5 (≈ 18.2 µM) | 28.9 (≈ 95.6 µM) | about 0.09 μg/mL
